Experiments:
Format in all cases: in vivo
transplanted rice plant = test: Test Example 1: effect on crop, application before weed generation in submerged conditions (symbol a); settings: application herbicide amount 320 g/ha
How it was run: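 Rice at 2.5 leaf stage transplanted into submerged soil (4 cm depth) sown with three weed species; herbicide applied before weed emergence.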

corn [1] = test: Test Example 4: effect on crop by soil treatment (symbol c); settings: application herbicide amount 320 g/ha
How it was run: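 Diluvial soil (sterilized) in boxes; seeds placed spot-wise alongside weed species; ~1.5 cm covering soil. Greenhouse, 25–30° C.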

[2] = tested on: Echinochloa crus-galli var. crus-galli; test: Test Example 5: herbicidal effect by foliage application, plastic box (symbol H); settings: 320 g/ha, 3 weeks after application
How it was run: (§1)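 Leaf-applied emulsion, water-diluted to a preset herbicide dose, on two-week-old seedlings raised in a 25° C. to 30° C. greenhouse; injury rated at 3 weeks using earlier criteria.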

Veronica persica = test: Test Example 5: herbicidal effect by foliage application, plastic box (symbol R); settings: 320 g/ha, 3 weeks after application
How it was run: as §1

Alopecurus myosuroides [3] = test: Test Example 4: herbicidal effect by soil treatment (symbol J); settings: application herbicide amount 320 g/ha
How it was run: (§2)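 Seeds were sown in sterilized diluvial soil, covered with about 1.5 cm of soil, and the soil surface was sprayed with a water-diluted emulsion of the compound at a predetermined rate. Plants grew in a greenhouse at 25° C. to 30° C.; effects were scored visually 3 weeks after application.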

Apera spica-venti = test: Test Example 5: herbicidal effect by foliage application, plastic box (symbol L); settings: 320 g/ha, 3 weeks after application
How it was run: as §1

Amaranthus retroflexus = test: Test Example 5: herbicidal effect by foliage application, plastic box (symbol N); settings: 320 g/ha, 3 weeks after application
How it was run: as §1

Chenopodium album = test: Test Example 5: herbicidal effect by foliage application, plastic box (symbol O); settings: 320 g/ha, 3 weeks after application
How it was run: as §1

[4] = tested on: Echinochloa crus-galli var. crus-galli; test: Test Example 3: herbicidal effect by foliage application, Wagner pot (symbol H); settings: application herbicide amount 320 g/ha
How it was run: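 Steps: fill pot with alluvial soil; add water to 0.1–0.5 cm depth; sow weed and rice seed; grow 14 days at 25–30 °C; spray diluted emulsion over the leaves; rate effect after 3 weeks.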

soybean = test: Test Example 5: effect on crop by foliage application, plastic box (symbol d); settings: 320 g/ha, 3 weeks after application
How it was run: (§3)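 In a plastic box 7 cm deep filled with sterilized diluvial soil, seeds of crops and weeds such as Digitaria ciliaris, Avena fatua and Amaranthus retroflexus are sown in spots and covered with about 1.5 cm of soil before greenhouse growth at 25–30° C.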

Alopecurus myosuroides [5] = test: Test Example 5: herbicidal effect by foliage application, plastic box (symbol J); settings: 320 g/ha, 3 weeks after application
How it was run: as §1

Abutilon theophrasti = test: Test Example 4: herbicidal effect by soil treatment (symbol M); settings: application herbicide amount 320 g/ha
How it was run: as §2

Stellaria media = test: Test Example 4: herbicidal effect by soil treatment (symbol P); settings: application herbicide amount 320 g/ha
How it was run: as §2

Lolium multiflorum Lam. = test: Test Example 5: herbicidal effect by foliage application, plastic box (symbol K); settings: 320 g/ha, 3 weeks after application
How it was run: as §1

corn [6] = test: Test Example 5: effect on crop by foliage application, plastic box (symbol c); settings: 320 g/ha, 3 weeks after application
How it was run: as §3

Row | SMILES | Effect grade on crop, a: transplanted rice plant (transplanted rice plant) | c: corn, effect on crop grade (corn [1]) | H: Echinochloa crus-galli var. crus-galli, herbicidal effect grade [2] | R: Veronica persica, herbicidal effect grade (Veronica persica) | J: Alopecurus myosuroides, herbicidal effect grade (Alopecurus myosuroides [3]) | L: Apera spica-venti, herbicidal effect grade (Apera spica-venti) | N: Amaranthus retroflexus, herbicidal effect grade (Amaranthus retroflexus) | O: Chenopodium album, herbicidal effect grade (Chenopodium album) | herbicidal effect on H (Echinochloa crus-galli var. crus-galli), grade 0-5 [4] | d: soybean, effect on crop grade (soybean) | J: Alopecurus myosuroides, herbicidal effect grade (Alopecurus myosuroides [5]) | M: Abutilon theophrasti, herbicidal effect grade (Abutilon theophrasti) | P: Stellaria media, herbicidal effect grade (Stellaria media) | K: Lolium multiflorum Lam., herbicidal effect grade (Lolium multiflorum Lam.) | c: corn, effect on crop grade (corn [6]) | c (corn) effect on crop grade (corn [1]) | J (Alopecurus myosuroides) herbicidal effect grade (Alopecurus myosuroides [3]) | M (Abutilon theophrasti) herbicidal effect grade (Abutilon theophrasti)
1 | CON=C(C)CC1CC(O)=C(c2c(C)cc(OCc3ccncc3)cc2C)C1=O (mixture of isomers) [6-053] | 3 (Herbicidal ratio of 40% or higher and lower than 70%) | 1 (Herbicidal ratio of 5% or higher and lower than 20%) | 5 (Herbicidal ratio of 90% or more (almost completely withered)) | 0 (Herbicidal ratio of 5% or lower (almost no effect)) | 0 (Herbicidal ratio of 5% or lower (almost no effect)) | 4 (Herbicidal ratio of 70% or higher and lower than 90%) | 0 (Herbicidal ratio of 5% or lower (almost no effect)) | 0 (Herbicidal ratio of 5% or lower (almost no effect)) | 5 (Herbicidal ratio of 90% or more (almost completely withered)) | 0 (Herbicidal ratio of 5% or lower (almost no effect)) | 3 (Herbicidal ratio of 40% or higher and lower than 70%) | 0 (Herbicidal ratio of 5% or lower (almost no effect)) | 0 (Herbicidal ratio of 5% or lower (almost no effect)) | 5 (Herbicidal ratio of 90% or more (almost completely withered)) | 2 (Herbicidal ratio of 20% or higher and lower than 40%) |  |  | 
2 | CON=C(C)CC1CC(OC(=O)C(C)(C)CCl)=C(c2c(C)cc(C)cc2C)C1=O (centres unmarked) [1-016] | 5 (Herbicidal ratio of 90% or more (almost completely withered)) |  | 5 (Herbicidal ratio of 90% or more (almost completely withered)) | 4 (Herbicidal ratio of 70% or higher and lower than 90%) |  | 5 (Herbicidal ratio of 90% or more (almost completely withered)) | 4 (Herbicidal ratio of 70% or higher and lower than 90%) | 2 (Herbicidal ratio of 20% or higher and lower than 40%) | 5 (Herbicidal ratio of 90% or more (almost completely withered)) | 4 (Herbicidal ratio of 70% or higher and lower than 90%) | 5 (Herbicidal ratio of 90% or more (almost completely withered)) |  |  | 5 (Herbicidal ratio of 90% or more (almost completely withered)) | 4 (Herbicidal ratio of 70% or higher and lower than 90%) | 4 (Herbicidal ratio of 70% or higher and lower than 90%) | 5 (Herbicidal ratio of 90% or more (almost completely withered)) | 5 (Herbicidal ratio of 90% or more (almost completely withered))
3 | CON=C(C)CC1CC(OC(=O)C(C)(C)Oc2ccccc2)=C(c2c(C)cc(C)cc2C)C1=O (centres unmarked) [1-017] | 5 (Herbicidal ratio of 90% or more (almost completely withered)) |  | 5 (Herbicidal ratio of 90% or more (almost completely withered)) | 3 (Herbicidal ratio of 40% or higher and lower than 70%) |  | 5 (Herbicidal ratio of 90% or more (almost completely withered)) | 4 (Herbicidal ratio of 70% or higher and lower than 90%) | 2 (Herbicidal ratio of 20% or higher and lower than 40%) | 5 (Herbicidal ratio of 90% or more (almost completely withered)) | 4 (Herbicidal ratio of 70% or higher and lower than 90%) | 5 (Herbicidal ratio of 90% or more (almost completely withered)) |  |  | 5 (Herbicidal ratio of 90% or more (almost completely withered)) | 4 (Herbicidal ratio of 70% or higher and lower than 90%) | 4 (Herbicidal ratio of 70% or higher and lower than 90%) | 5 (Herbicidal ratio of 90% or more (almost completely withered)) | 5 (Herbicidal ratio of 90% or more (almost completely withered))
4 | C=CCON=C(C)CC1CC(O)=C(c2c(C)cc(C)cc2C)C1=O (centres unmarked) [1-018] | 5 (Herbicidal ratio of 90% or more (almost completely withered)) |  | 5 (Herbicidal ratio of 90% or more (almost completely withered)) | 4 (Herbicidal ratio of 70% or higher and lower than 90%) |  | 5 (Herbicidal ratio of 90% or more (almost completely withered)) | 0 (Herbicidal ratio of 5% or lower (almost no effect)) |  | 5 (Herbicidal ratio of 90% or more (almost completely withered)) | 3 (Herbicidal ratio of 40% or higher and lower than 70%) | 5 (Herbicidal ratio of 90% or more (almost completely withered)) |  |  | 5 (Herbicidal ratio of 90% or more (almost completely withered)) | 5 (Herbicidal ratio of 90% or more (almost completely withered)) | 4 (Herbicidal ratio of 70% or higher and lower than 90%) | 5 (Herbicidal ratio of 90% or more (almost completely withered)) | 4 (Herbicidal ratio of 70% or higher and lower than 90%)
5 | C#CCON=C(C)CC1CC(O)=C(c2c(C)cc(C)cc2C)C1=O (centres unmarked) [1-019] | 5 (Herbicidal ratio of 90% or more (almost completely withered)) |  | 5 (Herbicidal ratio of 90% or more (almost completely withered)) | 4 (Herbicidal ratio of 70% or higher and lower than 90%) |  | 5 (Herbicidal ratio of 90% or more (almost completely withered)) | 2 (Herbicidal ratio of 20% or higher and lower than 40%) |  | 5 (Herbicidal ratio of 90% or more (almost completely withered)) | 3 (Herbicidal ratio of 40% or higher and lower than 70%) | 5 (Herbicidal ratio of 90% or more (almost completely withered)) |  |  | 5 (Herbicidal ratio of 90% or more (almost completely withered)) | 5 (Herbicidal ratio of 90% or more (almost completely withered)) | 4 (Herbicidal ratio of 70% or higher and lower than 90%) | 5 (Herbicidal ratio of 90% or more (almost completely withered)) | 4 (Herbicidal ratio of 70% or higher and lower than 90%)
6 | CC(CC1CC(O)=C(c2c(C)cc(C)cc2C)C1=O)=NOCc1ccccn1 (centres unmarked) [1-022] | 5 (Herbicidal ratio of 90% or more (almost completely withered)) |  | 5 (Herbicidal ratio of 90% or more (almost completely withered)) | 3 (Herbicidal ratio of 40% or higher and lower than 70%) |  | 5 (Herbicidal ratio of 90% or more (almost completely withered)) | 1 (Herbicidal ratio of 5% or higher and lower than 20%) | 3 (Herbicidal ratio of 40% or higher and lower than 70%) | 5 (Herbicidal ratio of 90% or more (almost completely withered)) | 3 (Herbicidal ratio of 40% or higher and lower than 70%) | 5 (Herbicidal ratio of 90% or more (almost completely withered)) |  |  | 5 (Herbicidal ratio of 90% or more (almost completely withered)) | 3 (Herbicidal ratio of 40% or higher and lower than 70%) | 0 (Herbicidal ratio of 5% or lower (almost no effect)) | 5 (Herbicidal ratio of 90% or more (almost completely withered)) | 0 (Herbicidal ratio of 5% or lower (almost no effect))

From patent US11000033B2, “Ketone or oxime compound, and herbicide” (NISSAN CHEMICAL CORPORATION, priority 2014, dated 2021)
